Assay results taken from article PMC6508677, “Identification of druggable small molecule antagonists of the Plasmodium falciparum hexose transporter PfHT and assessment of ligand access to the glucose permeation pathway via FLAG-mediated protein engineering” (PLoS ONE, 2019).
Several values for one entry are separate records, joined by “and”; a condition that tells them apart may be missing. Identical values can stand only once. Like-named read-outs stand apart in the source and are kept apart here.

Tests used:
[1] = target: T1, FTPfHT (Plasmodium falciparum, UniProt Q7KWJ5); assay: [3H]-D-glucose specific uptake into FTPfHT-containing liposomes; assay type: biochemical; conditions: for D-Glc - L-Glc Uptake, single experiments / D-Glc - L-Glc Uptake, Ave: liposomes; for D-Glc - L-Glc Uptake, Ave: average of Expt 1-3
T1 sequence (Q7KWJ5 1-504): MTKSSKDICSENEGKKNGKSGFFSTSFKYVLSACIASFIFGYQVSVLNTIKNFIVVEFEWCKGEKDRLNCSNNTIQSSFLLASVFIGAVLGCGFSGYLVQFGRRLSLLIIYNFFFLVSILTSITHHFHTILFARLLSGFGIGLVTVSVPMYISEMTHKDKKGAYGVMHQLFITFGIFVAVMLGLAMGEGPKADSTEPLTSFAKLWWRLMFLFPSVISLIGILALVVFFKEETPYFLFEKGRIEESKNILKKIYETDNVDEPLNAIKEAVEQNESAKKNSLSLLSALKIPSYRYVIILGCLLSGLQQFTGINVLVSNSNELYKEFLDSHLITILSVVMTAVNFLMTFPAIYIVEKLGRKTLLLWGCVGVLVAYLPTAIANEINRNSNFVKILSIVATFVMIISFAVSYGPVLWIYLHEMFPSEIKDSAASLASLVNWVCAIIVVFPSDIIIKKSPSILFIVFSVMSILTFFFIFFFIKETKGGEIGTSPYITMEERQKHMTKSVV
Description: SalI and NotI restriction sites were introduced to the 5’ and 3’ ends, respectively, of FTPfHT cDNA via PCR and then this construct was placed into the multiple cloning site of the pACMV-tetO vector [25]. Stable tetracycline-inducible HEK293S GnTI cell lines expressing FTPfHT were generated using the same protocol previously described for FTGLUT4 [26]. FTPfHT protein was solubilized from FTPfHT/HEK293S GnTI cell pellets with lauryl maltose neopentyl glycol (LMNG) detergent and purified using M2 anti-FLAG affinity gel (Sigma) as described in [27]. The FLAG tag was cleaved using tobacco etch virus (TEV) protease (plasmid purchased from Addgene, Cambridge, MA) at a ratio of 1:20 TEV/PfHT overnight at 4°C in the presence of 1 mM DTT. Based on SDS-PAGE and Blue BANDit protein stain (Amresco, Solon, OH), PfHT protein after FLAG elution was ~95% pure.
Liposomes containing PfHT were made according to Hresko et al.. Briefly, purified PfHT protein in LMNG micelles described above were mixed with Triton X-100 destabilized eggPC/POPA/POPE (70:15:15) large unilamellar vesicles (lipid to protein ratio of 100–125:1 (w/w)). By slowly removing the detergents with Amberlite XAD-2 beads (Supelco Analytical, Bellefonte, PA), PfHT protein spontaneously inserts into the liposomes. After removal of the beads, liposomes were collected by ultracentrifugation, resuspended in buffer, and flash-frozen with liquid nitrogen. Frozen liposomes containing purified PfHT protein were thawed at room temperature followed by extrusion through a 200-nm polycarbonate filter to create liposomes of uniform size. Uptake was started by adding [^3H]-D-glucose (1 μCi/ml, 200 μM cold D-glucose) to PfHT proteoliposomes at room temperature. Transport was stopped at different times with 5 ml of ice-cold quench buffer (50 mM potassium phosphate, 130 mM KCl, pH 7.4) and then filtered by vacuum on a 0.2-μm mixed cellulose ester filter (Advantec, Durham, NC). Filters were subsequently washed with an additional 10 ml of quench buffer. Scintillation fluid (Filter Count, PerkinElmer, Waltham, MA) was added to the filters and the radioactivity counted. [^3H]-L-glucose (1 μCi/ml, 200 μM cold L-glucose) was used to determine nonspecific transport. Specific uptake was calculated by subtracting nonspecific [^3H]-L-glucose from [^3H]-D-glucose uptake. Uptake was normalized to the amount of transporter per reaction, determined by analyzing aliquots of transporter-containing liposomes along with a BSA standard curve on an SDS-polyacrylamide gel stained with Blue Bandit protein stain and quantified using an Odyssey infrared imaging system (LI-COR Biosciences, Lincoln, NB). Data were fitted by least squares nonlinear regression analysis using GraphPad Prism 6.0.

[2] = target: T2, PfHT (Plasmodium falciparum, UniProt Q7KWJ5); assay: [3H]-D-glucose specific uptake into liposomes containing purified PfHT; assay type: biochemical; design: expressed in transfected cells; host or cells: HEK293 (HEK293-FLIP, native hGLUT1 knocked down by shRNA); conditions: for D-Glc - L-Glc Uptake, Ave / D-Glc - L-Glc Uptake, individual experiments: PfHT liposomes
T2 sequence (Q7KWJ5 1-504): T1 sequence (Q7KWJ5 1-504)

With `Cc1ccc(S(=O)(=O)CCNC(=O)c2c(-c3c(Cl)cccc3Cl)noc2C)cc1` [WU-1, 3-(2,6-dichlorophenyl)-5-methyl-N-[2-(4-methylbenzenesulfonyl)ethyl]-1,2-oxazole-4-carboxamide] the IC50 ([1]; D-Glc - L-Glc uptake in reconstituted liposomes, Expt 1, Expt 2, Expt 3, read-out: IC50, single experiments) was 12.4 µM and 18.8 µM and 8.31 µM, the IC50 ([1]; S3 Fig, read-out: IC50 for specific D-glucose uptake into FTPfHT liposomes) was 13.2 ± 3.1 µM and the “D-Glc - L-Glc Uptake, single experiments” value ([1]; WU-1 0.001 µM, Expt 1, Expt 2, Expt 3) was 36.56 pmol/µg PfHT and 54.37 pmol/µg PfHT and 37.47 pmol/µg PfHT. For the same compound, the “D-Glc - L-Glc Uptake, Ave” value ([1]; WU-1 0.001 µM) was 42.8 pmol/µg PfHT, the “D-Glc - L-Glc Uptake, single experiments” value ([1]; WU-1 0.625 µM, Expt 1, Expt 2, Expt 3) was 44.52 pmol/µg PfHT and 43.4 pmol/µg PfHT and 46.2 pmol/µg PfHT and the “D-Glc - L-Glc Uptake, Ave” value ([1]; WU-1 0.625 µM) was 44.7 pmol/µg PfHT. The “D-Glc - L-Glc Uptake, single experiments” value ([1]; WU-1 1.25 µM, Expt 1, Expt 2, Expt 3) was 39.01 pmol/µg PfHT and 40.61 pmol/µg PfHT and 38.03 pmol/µg PfHT, the “D-Glc - L-Glc Uptake, Ave” value ([1]; WU-1 1.25 µM) was 39.22 pmol/µg PfHT and the “D-Glc - L-Glc Uptake, single experiments” value ([1]; WU-1 2.5 µM, Expt 1, Expt 2, Expt 3) was 43.49 pmol/µg PfHT and 43.42 pmol/µg PfHT and 42.09 pmol/µg PfHT. For the same compound, the “D-Glc - L-Glc Uptake, Ave” value ([1]; WU-1 2.5 µM) was 43 pmol/µg PfHT, the “D-Glc - L-Glc Uptake, single experiments” value ([1]; WU-1 5 µM, Expt 1, Expt 2, Expt 3) was 32.42 pmol/µg PfHT and 25.14 pmol/µg PfHT and 27.92 pmol/µg PfHT and the “D-Glc - L-Glc Uptake, Ave” value ([1]; WU-1 5 µM) was 28.49 pmol/µg PfHT. The “D-Glc - L-Glc Uptake, single experiments” value ([1]; WU-1 10 µM, Expt 1, Expt 2, Expt 3) was 23.96 pmol/µg PfHT and 25.01 pmol/µg PfHT and 20.67 pmol/µg PfHT, the “D-Glc - L-Glc Uptake, Ave” value ([1]; WU-1 10 µM) was 23.21 pmol/µg PfHT and the “D-Glc - L-Glc Uptake, Ave” value ([1]; WU-1 20 µM) was 17.17 pmol/µg PfHT. The “D-Glc - L-Glc Uptake, single experiments” value ([1]; WU-1 40 µM, Expt 1, Expt 2, Expt 3) was 10.91 pmol/µg PfHT and 13.9 pmol/µg PfHT and 10.43 pmol/µg PfHT, the “D-Glc - L-Glc Uptake, Ave” value ([1]; WU-1 40 µM) was 11.75 pmol/µg PfHT and the “D-Glc - L-Glc Uptake, single experiments” value ([1]; WU-1 80 µM, Expt 1, Expt 2, Expt 3) was 3.31 pmol/µg PfHT and 3.52 pmol/µg PfHT and 3.4 pmol/µg PfHT. The “D-Glc - L-Glc Uptake, Ave” value ([1]; WU-1 80 µM) was 3.41 pmol/µg PfHT, the “D-Glc - L-Glc Uptake, single experiments” value ([1]; WU-1 160 µM, Expt 1, Expt 2, Expt 3) was 4.44 pmol/µg PfHT and 4.32 pmol/µg PfHT and 4.15 pmol/µg PfHT and the “D-Glc - L-Glc Uptake, Ave” value ([1]; WU-1 160 µM) was 4.3 pmol/µg PfHT. For the same compound, the IC50 ([2]; IC50 for specific D-glucose uptake (D-glucose minus L-glucose) into PfHT liposomes, purified PfHT, zero-trans, mean) was 5.9 ± 0.8 µM, the IC50 ([2]; IC50 for specific D-glucose uptake into PfHT liposomes, individual experiments, Expt 1-3) was 7.34 µM and 4.58 µM and 5.92 µM and the “D-Glc - L-Glc Uptake, Ave” value ([2]; 0.001 µM WU-1) was 21.51 pmol/µg PfHT. The “D-Glc - L-Glc Uptake, individual experiments” value (“D-Glc … individual experiments” for short) ([2]; 0.001 µM WU-1) was 20.93 pmol/µg PfHT and 22.42 pmol/µg PfHT and 21.19 pmol/µg PfHT, the “D-Glc - L-Glc Uptake, Ave” value ([2]; 0.625 µM WU-1) was 22.79 pmol/µg PfHT and the “D-Glc … individual experiments” value ([2]; 0.625 µM WU-1) was 21.85 pmol/µg PfHT and 22.43 pmol/µg PfHT and 24.08 pmol/µg PfHT. The “D-Glc - L-Glc Uptake, Ave” value ([2]; 1.25 µM WU-1) was 19.33 pmol/µg PfHT, the “D-Glc … individual experiments” value ([2]; 1.25 µM WU-1) was 16.67 pmol/µg PfHT and 24.18 pmol/µg PfHT and 17.15 pmol/µg PfHT and the “D-Glc - L-Glc Uptake, Ave” value ([2]; 2.5 µM WU-1) was 18.48 pmol/µg PfHT. The “D-Glc … individual experiments” value ([2]; 2.5 µM WU-1) was 16.28 pmol/µg PfHT and 15.54 pmol/µg PfHT and 23.61 pmol/µg PfHT, the “D-Glc - L-Glc Uptake, Ave” value ([2]; 5 µM WU-1) was 10 pmol/µg PfHT and the “D-Glc … individual experiments” value ([2]; 5 µM WU-1) was 13.49 pmol/µg PfHT and 7.15 pmol/µg PfHT and 9.35 pmol/µg PfHT. The “D-Glc - L-Glc Uptake, Ave” value ([2]; 10 µM WU-1) was 7.99 pmol/µg PfHT, the “D-Glc … individual experiments” value ([2]; 10 µM WU-1) was 7.38 pmol/µg PfHT and 9.19 pmol/µg PfHT and 7.39 pmol/µg PfHT and the “D-Glc - L-Glc Uptake, Ave” value ([2]; 20 µM WU-1) was 5.15 pmol/µg PfHT. For the same compound, the “D-Glc … individual experiments” value ([2]; 20 µM WU-1) was 6.58 pmol/µg PfHT and 4.82 pmol/µg PfHT and 4.04 pmol/µg PfHT, the “D-Glc - L-Glc Uptake, Ave” value ([2]; 40 µM WU-1) was 2.74 pmol/µg PfHT and the “D-Glc … individual experiments” value ([2]; 40 µM WU-1) was 3.05 pmol/µg PfHT and 1.92 pmol/µg PfHT and 3.24 pmol/µg PfHT. The “D-Glc - L-Glc Uptake, Ave” value ([2]; 80 µM WU-1) was -0.29 pmol/µg PfHT, the “D-Glc … individual experiments” value ([2]; 80 µM WU-1) was 0.605 pmol/µg PfHT and -1.53 pmol/µg PfHT and 0.06 pmol/µg PfHT and the “D-Glc - L-Glc Uptake, Ave” value ([2]; 160 µM WU-1) was -0.167 pmol/µg PfHT. The “D-Glc … individual experiments” value ([2]; 160 µM WU-1) was 0.75 pmol/µg PfHT and -0.06 pmol/µg PfHT and -1.19 pmol/µg PfHT.
